Source: patent US20090017038A1, “Sigma-2 Receptor, Method of Screening of Specific Ligands and Use of the Same in Diagnostic or Therapeutic Methods” (priority 2006, published 2009)
Values belong to the compound of their own block, whether it stands above or below them.

Key:
[1] = target: T1, sigma-2 receptor (Homo sapiens, UniProt Q5BJF2); experiment: sigma-2 receptor affinity; type: binding
[2] = target: T1, sigma-2 receptor; experiment: sigma-2 receptor activity
[3] = target: mixture of the affinity column-eluted histone proteins (sigma-2 receptor); experiment: competition binding assay with [3H]-DTG on mixture of affinity column-eluted histone proteins; parameters: species or system human; conditions: 20 mcg histone proteins, radioligand [3H]-DTG
Procedure: The formation of a complex was highlighted through an assay in which the histone proteins were suspended in 50 mM Tris pH 8.0. […] At equilibrium, determined by the above-mentioned kinetic studies, the histone/radioligand complex was separated after 120 min by filtration on glass fiber (GF/C) membranes, and quantification of the same was performed by radioactivity count.
The sample was incubated for 120 min at 25° C., then the histone/radioligand complex was rapidly filtered on ø 25 mm GF/C membranes. The filter was washed twice with 3 mL buffer. Scintillation liquid was added and a radioactivity reading was performed. The displacement rate was calculated as difference (%) with respect to the specific binding measures by using 10 μM of DTG.

[4] = tested on: neuroblastoma or glioma tumour cells; experiment: antiproliferative assay (MTT); type: cell-based
Procedure: (§1) The antiproliferative assay for compounds was performed by using the MTT assay (Mossman et al. 1983, J. Immunol. Methods 65, pp 55-63). The cytotoxicity assay was performed by measuring the LDH level as reported by Vilner and Bowen 2000, J. Pharmacol. Exp. Ther. 292, pp 408-413. The detailed experimental part is reported in Colabufo et al. 2004, Naunyn Schmiedeberg's Arch. Pharmacol. 370, pp. 106-113.

[5] = tested on: neuroblastoma or glioma tumour cells; experiment: cytotoxicity assay (LDH level); type: cell-based
Procedure: as §1

[6] = target: T1, sigma-2 receptor; conditions: literature (Perrone 2000; Berardi 1996); cited from earlier work
[7] = target: T1, sigma-2 receptor; conditions: literature (Perrone 2000; Berardi 1996); cited from earlier work; remark: listed apart in the source
[8] = tested on: sigma-2 receptor (affinity chromatography-eluted proteins from SK-N-SH membranes); experiment: saturation binding analysis with [3H]-DTG on affinity column-eluted proteins; parameters: species or system human; conditions: [3H]-DTG saturation, FIG. 2A
Procedure: The samples, containing 400 μg of protein, radioligand, 10 μM of unlabeled DTG to determine nonspecific binding, and 1 μM of (+)-pentazocine to mask the sigma-1 receptors, were brought to equilibrium Into a final volume of 500 μL 50 mM Tris-HCl at pH 8.0 for 120 min at 25° C. At equilibrium, 5 mL buffer (50 mM Tris-HCl, pH 7.4) were added. Samples were filtered on GF/C membranes, acclimatized in 0.5% PEI for 30 min prior to use. Filters were washed twice with the buffer (5 mL). Radioactivity count was performed on a LS-6500 Beckman Scintillation Counter.

T1 sequence (Q5BJF2 whole entry, species assumed): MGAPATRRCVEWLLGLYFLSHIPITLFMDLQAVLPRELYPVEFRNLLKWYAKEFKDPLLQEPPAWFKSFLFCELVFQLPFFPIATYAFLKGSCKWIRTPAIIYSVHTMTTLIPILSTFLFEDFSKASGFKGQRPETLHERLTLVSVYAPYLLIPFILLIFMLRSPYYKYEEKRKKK

- affinity of amino-substituted ligand relative to PB28 [1]: unmodified
- sigma-2 activity of amino-substituted ligand relative to PB28 [2]: unmodified
Structure (SMILES): COc1ccc(N)c2c1CCCC2CCCN1CCN(C2CCCCC2)CC1 (centres unmarked) [compound 2, 1-cyclohexyl-4-[3-(8-amino-5-methoxy-1,2,3,4-tetrahydronaphtalen-1-yl)propyl]piperazine]

- Ki [3]: 0.068 nM
Structure (SMILES): COc1ccccc1[C@H]1CC[C@H](N2CCN(C3CCCCC3)CC2)CC1 [trans-1-cyclohexyl-4-[4-(2-methoxy-phenyl)cyclohexyl]piperazine]
- antiproliferative activity [4]: homogeneous to results reported in literature for the best ligand known to date: the compound PB28
- cytotoxic activity [5]: homogeneous to results reported in literature for the best ligand known to date: the compound PB28

Structure (SMILES): COc1cccc2c1CCCC2CCCN1CCN(C2CCCCC2)CC1 (centres unmarked) [PB28]
- affinity for sigma-2 receptor [6]: high affinity
- agonist activity at sigma-2 receptor [7]: potent agonist activity

Structure (SMILES): Cc1ccccc1N=C(N)Nc1ccccc1C [[^3H]-DTG]
- Bmax [8]: 588±50 fmol/mg of protein
